Reference: patent US11000537B2, “Composition comprising novel ginsenoside” (AMOREPACIFIC CORPORATION, priority 2018, dated 2021)

What was measured:
Assay type in all cases: cell-based
SH-SY5Y cells = assay: cytotoxicity, Cell Counting Kit (CCK)-8; details: 0.1, 1, 5, 10, 20 and 50 μM, FIG. 17
Procedure: 10 μl of the CCK-8 reagent was added to the culturing SH-SY5Y cells (Dojindo, Md., USA) with reference to a 96-well plate, and left at 37° C. for 2 hours, and then the absorbance was measured at 450 nm. The cell viability was marked as a percentage (%) of the absolute optical density of each sample relative to the untreated sample. At this time, the concentration of the novel ginsenoside GS #10, which is an example of the present disclosure, contained in the medium in which the cells were cultured was 0.1, 1, 5, 10, 20, and 50 μM, respectively.

[1] = test system: SREBP1c (sterol-regulatory element binding protein 1c); assay: SREBP1c gene expression in HepG2 (qPCR); details: 24 hours
Procedure: The hepatocyte cell line HepG2 purchased from the International Center for Biological Resources (ATCC) were placed in Dulbecco's Modified Eagle's Medium (Sigma) to which 10% fetal bovine serum (Hyclone) and 1% penicillin/streptomycin (Sigma) were added, and cultured in a 5% CO2 incubator. […] After 24 hours of treatment, cells were collected, RNA was extracted using Trizol™ reagent (Thermo Fisher Scientific), and cDNA was synthesized using RevertAid™ 1st strand cDNA synthesis kit (Thermo Fisher Scientific). Bio-Rad's CFX96 real-time quantitative PCR (qPCR) instrument was used to observe the expression of the genes SREBP1c (sterol-regulatory element binding protein 1c), ACC (acetyl-CoA carboxylase) and FAS (Fatty acid synthase), which induces fat synthesis or accumulation.

[2] = test system: ACC (acetyl-CoA carboxylase); assay: ACC gene expression in HepG2 (qPCR); details: 24 hours
Procedure: The hepatocyte cell line HepG2 purchased from the International Center for Biological Resources (ATCC) were placed in Dulbecco's Modified Eagle's Medium (Sigma) to which 10% fetal bovine serum (Hyclone) and 1% penicillin/streptomycin (Sigma) were added, and cultured in a 5% CO2 incubator. As a positive control, fenofibrate (FF, Sigma), which is used as an antihyperlipidemic drug, was used, and 7 kinds of ginsenosides (GS #01-GS #06, GS #10; 10 μM each) extracted from Ginseng seed were used for the experiment. After 24 hours of treatment, cells were collected, RNA was extracted using Trizol™ reagent (Thermo Fisher Scientific), and cDNA was synthesized using RevertAid™ 1st strand cDNA synthesis kit (Thermo Fisher Scientific). Bio-Rad's CFX96 real-time quantitative PCR (qPCR) instrument was used to observe the expression of the genes SREBP1c (sterol-regulatory element binding protein 1c), ACC (acetyl-CoA carboxylase) and FAS (Fatty acid synthase), which induces fat synthesis or accumulation.

HepG2 cells = assay: triglyceride accumulation in hepatocytes (Triglyceride Assay Kit)
Description: In addition, in order to investigate whether inhibition of the expression of fat synthesis-related genes by ginsenoside derived from Ginseng seed may be involved in actual fat synthesis and accumulation, HepG2 cells were used to treat seven ginsenosides (GS #01-GS #06, GS #10; […]) and the control group (fenofibrate, FF) in the same manner as above, and then the Triglyceride Assay Kit (Abcam) was used to measure the amount of triglyceride (TG) accumulated in hepatocytes.

pancreatic lipase = pancreatic lipase activity inhibition (Pancreatic Lipase Activity Assay Kit)
Procedure: The hepatocyte cell line HepG2 purchased from the International Center for Biological Resources (ATCC) were placed in Dulbecco's Modified Eagle's Medium (Sigma) to which 10% fetal bovine serum (Hyclone) and 1% penicillin/streptomycin (Sigma) were added, and cultured in a 5% CO2 incubator. As a positive control for the cells, Xenical (Sigma), which are used as pancreatic lipase inhibitors and anti-obesity therapeutic agents, and seven types of ginsenosides (GS #01-GS #06, GS #10; 10 μM each) extracted from Ginseng seed were treated for 1 hour. In addition, Pancreatic Lipase Activity Assay Kit (Abcam) was used to observe the inhibition of each lipase activity.

LDL receptor (LDLR) = assay: LDL receptor gene expression in HepG2 (qPCR); details: 24 hours
[3] = test system: PPARγ (Peroxisome proliferator-activated receptor gamma); assay: PPARγ adipocyte marker gene expression (qPCR)
Procedure: (§1) The adipocyte cell 3T3-L1 purchased from the International Center for Biological Resources (ATCC) were placed in Dulbecco's Modified Eagle's Medium (Sigma) to which 10% fetal bovine serum (Hyclone) and 1% penicillin/streptomycin (Sigma) were added, and cultured in a 5% CO2 incubator. In order to differentiate preadipocytes into adipocytes, the cells were filled in a culture plate and cultured. After 48 hours, the cells were replaced with Dulbecco's modified eagle medium (DMEM) to which 10% of fetal bovine serum (Hyclone), 0.5 mM of 3-isobutyl-1-methylxanthine (Sigma), 1 μM of dexamethasone (Sigma), 5 μg/ml of insulin (Sigma), 1% of penicillin/streptomycin (Sigma) were added and further cultured for 48 hours. During 48 hours of culture, seven types of ginsenoside reagents (GS #01-GS #06, GS #10) extracted from Ginseng seeds were treated at 10 μM each to affect adipocyte differentiation. […]
(§2) After the differentiation of adipocytes in the same manner as above, the expressions of PPARγ (Peroxisome proliferator-activated receptor gamma), aP2 (Adipocyte protein 2) and CD36 were observed as adipocyte marker genes. […] Bio-Rad's CFX96 real-time quantitative PCR (qPCR) instrument was used to quantify the expression levels of each gene. […]

[4] = test system: aP2 (Adipocyte protein 2); assay: aP2 adipocyte marker gene expression (qPCR)
Procedure: as §1, §2

What does the source list for `CC1(C)C(=O)CC[C@@]2(C)C1[C@@H](O[C@H]1OC(CO)[C@H](O)C(O)C1O[C@H]1OC(CO)[C@H](O)C(O)C1O)C[C@]1(C)C2C[C@@H](O)C2C([C@]3(C)CC[C@H](C(C)(C)O)O3)CC[C@]21C` (stereo partly drawn) [GS #10, (20S,24R)-6-O-β-D-glucopyranosyl(1→2)-β-D-glucopyranoside-dammar-3-one-20,24-epoxy-6a,12b,25-triol]?
cytotoxicity (cell viability) (SH-SY5Y cells): did not exhibit cytotoxicity up to 50 μM; SREBP1c expression inhibitory effect ([1]; 10 μM, HepG2, FIG. 18): significantly higher expression inhibitory effect; SREBP1c expression inhibitory effect ([1]; 1, 10 μM, compared with Rg1, Rg3, Rb1, FIG. 23): far superior in lipid metabolism inhibitory effect; ACC expression inhibitory effect ([2]; 10 μM, HepG2, FIG. 19): significantly higher expression inhibitory effect; ACC expression inhibitory effect ([2]; 1, 10 μM, compared with Rg1, Rg3, Rb1, FIG. 24): far superior in lipid metabolism inhibitory effect; inhibitory effect of lipid (triglyceride) accumulation in hepatocytes (HepG2 cells; 10 μM, HepG2, FIG. 21): most excellent inhibitory effect of lipid accumulation in hepatocytes; inhibition of triglyceride accumulated in hepatocytes (HepG2 cells; 1, 10 μM, compared with Rg1, Rg3, Rb1, FIG. 26): far superior in lipid metabolism inhibitory effect; lipase activity inhibitory effect relative to that of the conventional ginsenoside (pancreatic lipase; 10 μM, 1 hour, FIG. 22): ≥ 2 times; pancreatic lipase activity inhibitory effect (pancreatic lipase; 10 μM, 1 hour, FIG. 22): the best; pancreatic lipase activity inhibition (pancreatic lipase; 1, 10 μM, compared with Rg1, Rg3, Rb1, FIG. 27): far superior in lipid metabolism inhibitory effect; increase of LDLR expression level compared to the control (−) (LDL receptor (LDLR); 10 μM, HepG2, FIG. 29): more than 2 times; promotion of intracellular transport (LDLR expression) (LDL receptor (LDLR); 1 and 10 μM, compared with Rg1, Rg3, Rb1, FIG. 32): most effective in inhibiting cholesterol synthesis and promoting intracellular transport; adipocyte differentiation inhibition, PPARγ gene expression ([3]; 1 μM and 10 μM, compared with Rg1, Rg3, Rb1, FIG. 39): far superior in adipocyte differentiation inhibition; adipocyte differentiation inhibition, PPARγ gene expression ([3]; 10 μM, FIG. 35): more effective in inhibiting the adipocyte differentiation; adipocyte differentiation inhibition, aP2 gene expression ([4]; 1 μM and 10 μM, compared with Rg1, Rg3, Rb1, FIG. 40): far superior in adipocyte differentiation inhibition; adipocyte differentiation inhibition, aP2 gene expression ([4]; 10 μM, FIG. 36): more effective in inhibiting the adipocyte differentiation
